Results: patent publication US20080207573A1, “COMPOUNDS FOR TREATING VIRAL INFECTIONS” (priority 2006, published 2008)
Where two headings read alike, the source gives them in different places.

How the values were obtained:
HIV-1IIIB = assay: PBMC Drug Susceptibility Assay (HIV-1 p24 in supernatant); type: cell-based; details: Human immunodeficiency virus 1, PBMC, 168 h, HIV-1IIIB-infected human PBMCs, seven days
From the text: PBMC Drug Susceptibility Assay
Human peripheral blood mononuclear cells (PBMCS) were used to test compound antiviral activity as an indicator for clinical efficacy. PBMCs were isolated from two donors using a Ficoll-Hypaque density gradient, pooled and stimulated with PHA-L for three days. After stimulation, the cells were washed and maintained in culture medium containing IL-2. The stimulated cells were then mock-infected or batch-infected with the strain HIV-1IIIB at MOI 0.01 for one hour. Cells (unwashed) were then plated in the presence of increasing concentrations of compound and incubated for seven days. […] Compound toxicity in mock-infected cells was analyzed using the WST-1 assay.

[1] = Human Liver Microsome Assay (metabolic stability); type: in vitro ADME; details: human liver microsomes 0.5 mg/mL, test article 1 μM; for half-life at 1 μM: pH 7.4, read-out: Metabolic Stability in Human liver Microsomes T1/2
Procedure: Human Liver Microsome Assay
The microsomal fraction of liver homogenates contains endoplasmic reticulum derived cytochrome P450 enzymes that constitute the major phase I drug metabolizing enzymes. Briefly, to aid prediction of the in vivo rate of clearance of a dosed test article, an in vitro incubation containing human liver microsomes (0.5 mg/mL final protein concentration) and test article (1 μM incubation concentration) in the presence and absence of the necessary cofactor NADPH (1 mM incubation concentration) is conducted. The incubation is performed in a buffered aqueous system (100 mM potassium phosphate, pH 7.4). The concentration of the parent compound is determined using liquid chromatography coupled with tandem mass spectrometry and reported as percent remaining from a zero minute concentrations.

[2] = Compound toxicity in mock-infected MT-4 cells (WST-1 assay); type: cell-based; details: human, read-out: TC50 (concentration of compound that results in death of 50% of the host cells)
Procedure: (§1) The HTLV-1 transformed T cell line, MT-4, is highly susceptible to HIV-1 infection. Anti-HIV-1 agents were evaluated in this target cell line by protection from the HIV-induced cytopathic effect. In this assay, viability of both HIV-1 and mock-infected cells was assessed in a […] assay that monitors the ability of metabolically-active cells to reduce the tetrazolium salt WST-1. Cytoprotection by antiviral compounds is indicated by the positive readout of increased WST-1 cleavage.
(§2) Briefly, exponentially growing MT-4 cells were mock-infected or batch-infected with the HIV-1 laboratory strain, NL4-3, at a multiplicity of infection of 0.0005. Following a two hour infection, the cells were washed to remove unbound virus and plated in the presence of increasing concentrations of compound. After four days incubation, cytoprotection in the infected cells and compound toxicity in mock-infected cells were analyzed using the WST-1 assay.

[3] = system: HIV-1 laboratory strain, NL4-3; assay: MT-4 Cytoprotection Assay (protection from HIV-induced cytopathic effect, WST-1 readout); type: cell-based
Procedure: MT-4 Cytoprotection Assay
as §1, §2

[4] = Human immunodeficiency virus 1, NL43, MT4, 96 h, MT-4 cells, HIV-1 NL4-3, four days, read-out: EC50 (concentration of compound that reduces the virus induced cytopathic effect by 50% (MT-4))
[5] = Human immunodeficiency virus 1, NL43, list of representative compounds, read-out: EC50 of less than about 100 nm (representative compounds)
[6] = Human immunodeficiency virus 1, NL43, MT4, Table 7, MT-4 cells, HIV-1 NL4-3, read-out: MT4 EC50

SMILES: C=C(C)[C@@H]1CC[C@]2(C(=O)N[C@H](C)c3ccccn3)CC[C@]3(C)C(CCC4[C@@]5(C)CCC(OC(=O)CC(C)(C)C(=O)O)C(C)(C)C5CC[C@]43C)C12 (single isomer, unassigned) [Compound 105a]
- IC50 (HIV-1IIIB; Table 6): 2.6 nM
- Metabolic Stability in Human liver Microsomes % compound remaining at 40 minutes [1]: 44%
- half-life at 1 μM [1]: 36 min

SMILES: C=C(C)[C@@H]1CC[C@]2(C(=O)N[C@@H](C)c3ccccn3)CC[C@]3(C)C(CCC4[C@@]5(C)CCC(OC(=O)CC(C)(C)C(=O)O)C(C)(C)C5CC[C@]43C)C12 (single isomer, unassigned) [Compound 105b]
- IC50 (HIV-1IIIB; Table 6): 3.1 nM
- Metabolic Stability in Human liver Microsomes % compound remaining at 40 minutes [1]: 32%
- half-life at 1 μM [1]: 27 min

SMILES: C=C(C)[C@@H]1CC[C@]2(C(=O)NCc3ccncc3)CC[C@]3(C)[C@H](CC[C@@H]4[C@@]5(C)CC[C@H](O)C(C)(C)[C@@H]5CC[C@]43C)[C@@H]12 [Compound 46]
- CC50 at 4 days [2]: > 10000 nM
- EC50 [3, 4]: ~8600 nM

SMILES: C=C(C)[C@@H]1CC[C@]2(C(=O)NCCc3ccc(OC)cc3)CC[C@]3(C)[C@H](CC[C@@H]4[C@@]5(C)CC[C@H](OC(=O)CC(C)(C)C(=O)O)C(C)(C)[C@@H]5CC[C@]43C)[C@@H]12 [Compound 70]
- CC50 at 4 days [2]: > 10000 nM
- EC50 [3, 4]: ~2.9 nM
- EC50 [3, 5]: < 100 nM

SMILES: C=C(C)[C@@H]1CC[C@]2(C(=O)NCc3ccc(C(=O)O)cc3)CC[C@]3(C)[C@H](CC[C@@H]4[C@@]5(C)CC[C@H](OC(=O)CC(C)(C)C(=O)O)C(C)(C)[C@@H]5CC[C@]43C)[C@@H]12 [Compound 71]
- CC50 at 4 days [2]: ~7700 nM
- EC50 [3, 4]: ~126 nM

SMILES: C=C(C)[C@@H]1CC[C@]2(C(=O)NCc3ccccc3C(=O)O)CC[C@]3(C)[C@H](CC[C@@H]4[C@@]5(C)CC[C@H](OC(=O)CC(C)(C)C(=O)O)C(C)(C)[C@@H]5CC[C@]43C)[C@@H]12 [Compound 73]
- CC50 at 4 days [2]: ~6300 nM
- EC50 [3, 4]: ~8.1 nM
- EC50 [3, 5]: < 100 nM

SMILES: C=C(C)[C@@H]1CC[C@]2(C(=O)NCc3cccnc3)CC[C@]3(C)[C@H](CC[C@@H]4[C@@]5(C)CC[C@H](OC(=O)CC(C)(C)C(=O)O)C(C)(C)[C@@H]5CC[C@]43C)[C@@H]12 [Compound 76]
- CC50 at 4 days [2]: > 10000 nM
- EC50 [3, 4]: ~11 nM
- EC50 [3, 5]: < 100 nM

SMILES: C=C(C)[C@@H]1CC[C@]2(C(=O)NCc3nc4ccccc4n3C)CC[C@]3(C)[C@H](CC[C@@H]4[C@@]5(C)CC[C@H](OC(=O)CC(C)(C)C(=O)O)C(C)(C)[C@@H]5CC[C@]43C)[C@@H]12 [Compound 109]
- EC50 [3, 5]: < 100 nM

SMILES: C=C(C)[C@@H]1CC[C@]2(C(=O)NCc3nc4ccccc4[nH]3)CC[C@]3(C)[C@H](CC[C@@H]4[C@@]5(C)CC[C@H](OC(=O)CC(C)(C)C(=O)O)C(C)(C)[C@@H]5CC[C@]43C)[C@@H]12 [Compound 110]
- EC50 [3, 5]: < 100 nM

SMILES: C=C(C)[C@@H]1CC[C@]2(C(=O)NCc3ccc4ccccc4n3)CC[C@]3(C)[C@H](CC[C@@H]4[C@@]5(C)CC[C@H](OC(=O)CC(C)(C)C(=O)O)C(C)(C)[C@@H]5CC[C@]43C)[C@@H]12 [Compound 111]
- EC50 [3, 5]: < 100 nM

SMILES: C=C(C)[C@@H]1CC[C@]2(C(=O)NCc3cc(C)ccn3)CC[C@]3(C)[C@H](CC[C@@H]4[C@@]5(C)CC[C@H](OC(=O)CC(C)(C)C(=O)O)C(C)(C)[C@@H]5CC[C@]43C)[C@@H]12 [Compound 112]
- EC50 [3, 5]: < 100 nM

SMILES: C=C(C)[C@@H]1CC[C@]2(C(=O)NCc3ncccc3C)CC[C@]3(C)[C@H](CC[C@@H]4[C@@]5(C)CC[C@H](OC(=O)CC(C)(C)C(=O)O)C(C)(C)[C@@H]5CC[C@]43C)[C@@H]12 [Compound 113]
- EC50 [3, 5]: < 100 nM

SMILES: C=C(C)[C@@H]1CC[C@]2(C(=O)NCc3ccc(Cl)cn3)CC[C@]3(C)[C@H](CC[C@@H]4[C@@]5(C)CC[C@H](OC(=O)CC(C)(C)C(=O)O)C(C)(C)[C@@H]5CC[C@]43C)[C@@H]12 [Compound 114]
- EC50 [3, 5]: < 100 nM

SMILES: C=C(C)[C@@H]1CC[C@]2(C(=O)NC(Cc3ccccc3)C(=O)O)CC[C@]3(C)[C@H](CC[C@@H]4[C@@]5(C)CC[C@H](OC(=O)CC(C)(C)C(=O)O)C(C)(C)[C@@H]5CC[C@]43C)[C@@H]12 (stereo partly shown) [Compound 115]
- EC50 [3, 5]: < 100 nM

SMILES: C=C(C)[C@@H]1CC[C@]2(C(=O)N[C@@H](C)c3ccc(OC)cc3)CC[C@]3(C)[C@H](CC[C@@H]4[C@@]5(C)CC[C@H](OC(=O)CC(C)(C)C(=O)O)C(C)(C)[C@@H]5CC[C@]43C)[C@@H]12 [Compound 117]
- EC50 [3, 5]: < 100 nM

SMILES: C=C(C)[C@@H]1CC[C@]2(C(=O)NC(Cc3ccc(OC)cc3)C(=O)O)CC[C@]3(C)[C@H](CC[C@@H]4[C@@]5(C)CC[C@H](OC(=O)CC(C)(C)C(=O)O)C(C)(C)[C@@H]5CC[C@]43C)[C@@H]12 (stereo partly shown) [Compound 119]
- EC50 [3, 5]: < 100 nM

SMILES: C=C(C)[C@@H]1CC[C@]2(C(=O)NC(C(=O)O)c3ccc(OC)cc3)CC[C@]3(C)[C@H](CC[C@@H]4[C@@]5(C)CC[C@H](OC(=O)CC(C)(C)C(=O)O)C(C)(C)[C@@H]5CC[C@]43C)[C@@H]12 (stereo partly shown) [Compound 120]
- EC50 [3, 5]: < 100 nM

SMILES: C=C(C)[C@@H]1CC[C@]2(C(=O)NC3(c4ccccn4)CC3)CC[C@]3(C)[C@H](CC[C@@H]4[C@@]5(C)CC[C@H](OC(=O)CC(C)(C)C(=O)O)C(C)(C)[C@@H]5CC[C@]43C)[C@@H]12 [Compound 121]
- IC50 (HIV-1IIIB; Table 6): 18 nM
- Metabolic Stability in Human liver Microsomes % compound remaining at 40 minutes [1]: 42%
- half-life at 1 μM [1]: 30 min
- EC50 [3, 5]: < 100 nM

SMILES: CC(C)[C@@H]1CC[C@]2(C(=O)NCc3ccccc3C(=O)O)CC[C@]3(C)[C@H](CC[C@@H]4[C@@]5(C)CC[C@H](OC(=O)CC(C)(C)C(=O)O)C(C)(C)[C@@H]5CC[C@]43C)[C@@H]12 [Compound 122]
- EC50 [3, 5]: < 100 nM

SMILES: CC(C)[C@@H]1CC[C@]2(C(=O)NCC3CCCO3)CC[C@]3(C)[C@H](CC[C@@H]4[C@@]5(C)CC[C@H](OC(=O)CC(C)(C)C(=O)O)C(C)(C)[C@@H]5CC[C@]43C)[C@@H]12 (stereo partly shown) [Compound 123]
- EC50 [3, 5]: < 100 nM

SMILES: C=C(C)[C@@H]1CC[C@]2(C(=O)NCCC3CCCCC3)CC[C@]3(C)[C@H](CC[C@@H]4[C@@]5(C)CC[C@H](OC(=O)CC(C)(C)C(=O)O)C(C)(C)[C@@H]5CC[C@]43C)[C@@H]12 [Compound 124]
- EC50 [3, 5]: < 100 nM

SMILES: C=C(C)[C@@H]1CC[C@]2(C(=O)NC(C)(C)c3ccccn3)CC[C@]3(C)C(CCC4[C@@]5(C)CCC(OC(=O)CC(C)(C)C(=O)O)C(C)(C)C5CC[C@]43C)C12 (stereo partly shown) [Compound 126]
- IC50 (HIV-1IIIB; Table 6): 47.5 nM
- Metabolic Stability in Human liver Microsomes % compound remaining at 40 minutes [1]: 47%
- half-life at 1 μM [1]: 38 min

SMILES: C=C(C)[C@@H]1CC[C@]2(C(=O)Nc3cccc4cccnc34)CC[C@]3(C)C(CCC4[C@@]5(C)CCC(OC(=O)CC(C)(C)C(=O)O)C(C)(C)C5CC[C@]43C)C12 (stereo partly shown) [Compound 127]
- EC50 [3, 6]: 3100 nM

SMILES: C=C(C)[C@@H]1CC[C@]2(C(=O)NCc3ccc(F)cc3C(=O)O)CC[C@]3(C)C(CCC4[C@@]5(C)CCC(OC(=O)CC(C)(C)C(=O)O)C(C)(C)C5CC[C@]43C)C12 (stereo partly shown) [Compound 128]
- IC50 (HIV-1IIIB; Table 7): 3.6 nM
- EC50 [3, 6]: 28 nM

SMILES: C=C(C)[C@@H]1CC[C@]2(C(=O)NCc3ccc(C(=O)O)s3)CC[C@]3(C)C(CCC4[C@@]5(C)CCC(OC(=O)CC(C)(C)C(=O)O)C(C)(C)C5CC[C@]43C)C12 (stereo partly shown) [Compound 129]
- EC50 [3, 6]: 371 nM

SMILES: C=C(C)[C@@H]1CC[C@]2(C(=O)NCc3cccnc3C(=O)O)CC[C@]3(C)C(CCC4[C@@]5(C)CCC(OC(=O)CC(C)(C)C(=O)O)C(C)(C)C5CC[C@]43C)C12 (stereo partly shown) [Compound 130]
- IC50 (HIV-1IIIB; Table 7): 44 nM
- EC50 [3, 6]: 24 nM

SMILES: C=C(C)[C@@H]1CC[C@]2(C(=O)NCc3ccc4cccc(O)c4n3)CC[C@]3(C)C(CCC4[C@@]5(C)CCC(OC(=O)CC(C)(C)C(=O)O)C(C)(C)C5CC[C@]43C)C12 (stereo partly shown) [Compound 131]
- IC50 (HIV-1IIIB; Table 7): 3.5 nM
- EC50 [3, 6]: 3 nM

SMILES: C=C(C)[C@@H]1CC[C@]2(C(=O)N[C@@H](C)c3cccc[n+]3[O-])CC[C@]3(C)C(CCC4[C@@]5(C)CCC(OC(=O)CC(C)(C)C(=O)O)C(C)(C)C5CC[C@]43C)C12 (stereo partly shown) [Compound 132]
- IC50 (HIV-1IIIB; Table 7): 44 nM
- EC50 [3, 6]: 36 nM
